Data from patent US12109176B1, “Effect of glycerol on biofilm forming bacteria and fungi that changes the microbes sensitivity to pro and anti-biofilm non-toxic, non-bonded plasma amino acids and amino acid derivatives” (priority 2023, dated 2024).
“Also recorded” adds a separate entry of the source.

Experiments:
bacterial biofilm = test: In vitro testing on bacterial biofilm (inhibition and/or disruption); assay type: cell-based
Procedure: (§1) Two types of biofilm assays were performed: an inhibition assay and a disruption assay. The inhibition assay assesses the compound's ability to prevent biofilm development, while the disruption assay assesses the compound's ability to break up an existing mature biofilm.
(§2) All bacterial biofilm solutions were prepared in Tryptic Soy Broth (TSB), supplemented with 1% glucose (henceforth referred to as TSB-G). All subsequent procedures were performed in a manner that maintained sterility. A solution of each amino acid or an amino acid derivative to be tested was prepared in weight to volume concentrations ranging from 0.1-5.0%. Amino acids and amino acid derivatives were also tested in combinations. Compound solutions were homogenized with gentle agitation in the dark (4° C., 24 hours) before use.
(§3) 32 Amino acids and 2 amino acid derivatives of the amino acid serine that occur freely in human blood were tested. […] 31 of the 32 amino acids that were tested were the L-Isomers. Glycine has no stereoisomers. The 2 amino acid derivatives, ethanolamine and phosphoethanolamine were also tested. All biofilm assays were performed using 384-well non-tissue culture-treated polystyrene plates. The fungal species tested are as follows: Candida albicans, Candida guilliermondii, Candida parapsilosis, Candida glabrata, Candida tropicalis and Candida dubliniensis. The bacterial species tested are as follows: Staphylococci (standard wild type and methicillin-resistant strain USA300), Escherichia coli, Pseudomonas aeruginosa and Staphylococcus epidermidis.
(§4) Bacterial strains were streaked on Blood Agar plates (5% sheep blood in Tryptic Soy Broth) and incubated at 37° C. for 24 hours. A single colony from each strain to be tested was inoculated in a TSB broth and grown for 12 hours, at 37° C. with shaking (225 rpm). For the bacterial biofilm inhibition assays, 1 μL of saturated overnight cell culture was added to either 80 μL of TSB-G, or TSB-G supplemented with the amino acid compound solution to be tested, in a 384-well plate. The cells were allowed to adhere to the plate for 60 minutes at 37° C. without shaking. The media was carefully aspirated and 80 μL of TSB-G, or TSB-G supplemented with the amino acid compound solution was added to the plate. The plate was further incubated for 24 hours at 37° C. without shaking. Media was carefully aspirated and the biofilm was measured by optical density at 600 nm. Eight or twelve replicates were performed for each tested condition and the reported values are normalized to the control (TSB-G media only). For the bacterial biofilm disruption assays, 80 µL of TSB-G was added to the plate, along with 1 μL of overnight cell culture. The cells were allowed to adhere to the plate for 60 minutes at 37° C. with no shaking. The media was carefully aspirated and 80 μL of TSB-G was added to the plate. The plate was further incubated for 24 hours at 37° C. with no shaking. Media was carefully aspirated from the mature biofilm and 80 μL of TSB-G, or TSB-G supplemented with the amino acid to be tested, was gently added to the plate. The plate was further incubated for 24 hours at 37° C. without shaking. Media was aspirated and the biofilm was measured by optical density at 600 nm. Twelve replicates were performed for each tested condition and the reported values are normalized to the control (TSB-G media only).

fungal biofilm = test: In vitro testing on fungal biofilm (inhibition and/or disruption); assay type: cell-based
Procedure: as §1, §2, §3
(§5) Fungal strains were streaked on Yeast Peptone Dextrose (YPD) agar plates and incubated at 30° C. for 48 hours. A single colony from each strain to be tested was inoculated into YPD broth and grown for 12 hours at 30° C., shaking at 225 rpm. […] The cells were allowed to adhere to the plate for 90 minutes at 37° C. with shaking (350 rpm). […] The plate was further incubated for 24 hours at 37° C. with shaking (350 rpm). Media was carefully aspirated and the biofilm was measured by optical density at 600 nm. […] The cells were allowed to adhere to the plate for 90 minutes at 37° C. with shaking (350 rpm). […] The plate was further incubated for 24 hours at 37° C. with shaking (350 rpm). […] The plate was further incubated for 24 hours at 37° C. with shaking (350 rpm). Media was carefully aspirated, and the biofilm was measured by optical density at 600 nm.

[1] = test system: fungal biofilm (C. albicans); test: Fungal biofilm disruption assay; assay type: cell-based, Candida albicans
Procedure: as §1, §2, §3, §5

[2] = test system: bacterial (S. aureus) biofilm; test: Bacterial biofilm disruption assay; assay type: cell-based, Staphylococcus aureus
Procedure: as §1, §2, §3, §4

[3] = test system: fungal biofilm (C. albicans); test: Fungal biofilm inhibition assay; assay type: cell-based, Candida albicans
Procedure: as §1, §2, §3, §5

[4] = test system: bacterial (S. aureus) biofilm; test: Bacterial biofilm inhibition assay; assay type: cell-based, Staphylococcus aureus
Procedure: as §1, §2, §3, §4

[5] = test system: bacterial (S. aureus) biofilm and fungal biofilm (C. albicans); test: Biofilm inhibition assay, bacterial and fungal taken together; assay type: cell-based; settings: symbol marks the assay
Procedure: as §1, §2, §3, §5
as §4, with “plate.” for “plate. The plate was further incubated for 24 hours at 37° C. without shaking. Media was aspirated and the biofilm was measured by optical density at 600 nm. Twelve replicates were performed for each tested condition and the reported values are normalized to the control (TSB-G media only).”

[6] = Table E, in the absence of an infusion of glycerol
[7] = Table F, in the presence of a sufficient concentration of glycerol
[8] = in the presence of a therapeutic concentration of glycerol

| SMILES | effect on bacterial biofilm (in words) (bacterial biofilm; in vitro testing) | effect on fungal biofilm (in words) (fungal biofilm; in vitro testing) | Promote F Biofilm (dots: Disruption Biofilm Assay) [1, 6] | Reduce or Inhibit B Biofilm (dots: Disruption Biofilm Assay) ([2]; Table D, 0.1 to 5.0%) | Reduce or Inhibit B Biofilm (dots: Disruption Biofilm Assay) [2, 7] | Reduce or Inhibit F Biofilm (squares: Inhibition Biofilm Assay) ([3]; Table D, 0.1 to 5.0%) | Reduce or Inhibit F Biofilm (squares: Inhibition Biofilm Assay) [3, 7] | also measured |
| --- | --- | --- | --- | --- | --- | --- | --- | --- |
| Cn1cncc1C[C@H](N)C(=O)O [3-Methylhistidine, 3-methyl-L-histidine] | antibacterial biofilm effect | promoted fungal biofilm formation | ● (Single dot [ie. ●] signifies little effect on the Disruption Biofilm Assay (from about 10 to less than 30%)) | ● (Single dot [ie. ●] signifies little effect on the Disruption Biofilm Assay (from about 10 to less than 30%)) | ● (Single dot [ie. ●] signifies little effect on the Disruption Biofilm Assay (from about 10 to less than 30%)) | – | – | Promote F Biofilm (dots: Disruption Biofilm Assay) ([1]; Table D, 0.1 to 5.0%): ● (Single dot [ie. ●] signifies little effect on the Disruption Biofilm Assay (from about 10 to less than 30%)); Promote F Biofilm (squares: Inhibition Biofilm Assay) ([3]; Table D, 0.1 to 5.0%): ▪ (Single square [ie. ▪] signifies little effect on the Inhibition Biofilm Assay (from about 10 to less than 30%)); Promote F Biofilm (squares: Inhibition Biofilm Assay) [3, 6]: ▪ (Single square [ie. ▪] signifies little effect on the Inhibition Biofilm Assay (from about 10 to less than 30%)) |
| NCCO [Ethanolamine, ethanolamine] | – | antifungal biofilm effect | – | – | – | ▪ (Single square [ie. ▪] signifies little effect on the Inhibition Biofilm Assay (from about 10 to less than 30%)) | ▪ (Single square [ie. ▪] signifies little effect on the Inhibition Biofilm Assay (from about 10 to less than 30%)) | – |
| O=C(O)[C@@H]1C[C@@H](O)CN1 [Hydroxyproline, Trans-4-hydroxy-L-proline] | antibacterial biofilm effect | antifungal biofilm effects | – | ● (Single dot [ie. ●] signifies little effect on the Disruption Biofilm Assay (from about 10 to less than 30%)) | ● (Single dot [ie. ●] signifies little effect on the Disruption Biofilm Assay (from about 10 to less than 30%)) | ▪ (Single square [ie. ▪] signifies little effect on the Inhibition Biofilm Assay (from about 10 to less than 30%)) | ▪ (Single square [ie. ▪] signifies little effect on the Inhibition Biofilm Assay (from about 10 to less than 30%)) | Reduce or Inhibit B Biofilm (squares: Inhibition Biofilm Assay) ([4]; Table D, 0.1 to 5.0%): ▪ (Single square [ie. ▪] signifies little effect on the Inhibition Biofilm Assay (from about 10 to less than 30%)); Reduce or Inhibit B Biofilm (squares: Inhibition Biofilm Assay) [4, 7]: ▪ (Single square [ie. ▪] signifies little effect on the Inhibition Biofilm Assay (from about 10 to less than 30%)) |
| N[C@@H](COP(=O)(O)O)C(=O)O [Phosphoserine, O-phospho-L-serine] | antibacterial biofilm effect | antifungal biofilm effects | – | ● (Single dot [ie. ●] signifies little effect on the Disruption Biofilm Assay (from about 10 to less than 30%)) | ● (Single dot [ie. ●] signifies little effect on the Disruption Biofilm Assay (from about 10 to less than 30%)) | – | – | Reduce or Inhibit F Biofilm (dots: Disruption Biofilm Assay) ([1]; Table D, 0.1 to 5.0%): ● (Single dot [ie. ●] signifies little effect on the Disruption Biofilm Assay (from about 10 to less than 30%)); Reduce or Inhibit F Biofilm (dots: Disruption Biofilm Assay) [1, 7]: ● (Single dot [ie. ●] signifies little effect on the Disruption Biofilm Assay (from about 10 to less than 30%)); Neutral (square: Inhibition Biofilm Assay) ([5]; Table D, Neutral = no effect on the biofilm): ▪ (Single square [ie. ▪] signifies little effect on the Inhibition Biofilm Assay (from about 10 to less than 30%)); Neutral (square: Inhibition Biofilm Assay) [5, 6]: ▪ (Single square [ie. ▪] signifies little effect on the Inhibition Biofilm Assay (from about 10 to less than 30%)); Neutral (square: Inhibition Biofilm Assay) [5, 7]: ▪ (Single square [ie. ▪] signifies little effect on the Inhibition Biofilm Assay (from about 10 to less than 30%)) |
| CC(C)[C@H](N)C(=O)O [Valine, L-valine] | anti-bacterial biofilm effect | supported fungal biofilm formation; also recorded: pro-fungal biofilm effect; also recorded: promoted fungal biofilm formation | ● (Single dot [ie. ●] signifies little effect on the Disruption Biofilm Assay (from about 10 to less than 30%)) | ● (Single dot [ie. ●] signifies little effect on the Disruption Biofilm Assay (from about 10 to less than 30%)) | ● (Single dot [ie. ●] signifies little effect on the Disruption Biofilm Assay (from about 10 to less than 30%)) | – | – | effect on bacterial biofilm (in words) (bacterial biofilm; [8]): anti-bacterial biofilm effect; effect on bacterial biofilm (in words) (bacterial biofilm; in the presence of a therapeutic concentration of glycerol, listed as valine): anti-bacterial biofilm effect became dominant; effect on fungal biofilm (in words) (fungal biofilm; [8]): lost its pro-fungal biofilm effect; effect on fungal biofilm (in words) (fungal biofilm; in vitro testing, listed as valine): supported the formation of biofilm made by biofilm-forming fungi |
